Read-outs that look alike come from different tables or passages of the source.
Assays:
[1] = Microcentrifuge dissolution test in MFD solution; type: physicochemical; parameters: AUC: concentration or dose not given beside the values; settings: for Dissolved Ziprasidone Concentration / AUC: MFD solution pH 6.5, 37° C.; for Dissolved Ziprasidone Concentration: 200 μgA/mL if all dissolved
Protocol: A microcentrifuge dissolution test was performed to verify that ziprasidone hydrochloride monohydrate is a solubility-improved form of ziprasidone. For this test, a sufficient amount of ziprasidone hydrochloride monohydrate was added to a microcentrifuge test tube so that the concentration of ziprasidone would have been 200 μgA/mL, if all of the ziprasidone had dissolved. The tests were run in duplicate. The tubes were placed in a 37° C. temperature-controlled chamber, and 1.8 mL MFD solution at pH 6.5 and 290 mOsm/kg was added to each respective tube. The samples were quickly mixed using a vortex mixer for about 60 seconds. The samples were centrifuged at 13,000 G at 37° C. for 1 minute prior to collecting a sample. The resulting supernatant solution was then sampled and diluted 1:5 (by volume) with methanol. Samples were analyzed by high-performance liquid chromatography (HPLC) at a UV absorbance of 315 nm using a Zorbax RxC8 Reliance column and a mobile phase consisting of 55% (50 mM potassium dihydrogen phosphate, pH 6.5)/45% acetonitrile. Drug concentration was calculated by comparing UV absorbance of samples to the absorbance of drug standards. The contents of each tube were mixed on the vortex mixer and allowed to stand undisturbed at 37° C. until the next sample was taken. Samples were collected at 4, 10, 20, 40, 90, and 1200 minutes following administration to the MFD solution.
A similar test was performed with the crystalline ziprasidone free base as a control, and a sufficient amount of material was added so that the concentration of compound would have been 200 μgA/mL, if all of the ziprasidone had dissolved.
The concentrations of ziprasidone obtained in these tests were used to determine the maximum dissolved concentration of ziprasidone (“MDC90”) and the area under the concentration-versus-time curve (“AUC90”) during the initial ninety minutes.

[2] = Dissolution in phosphate buffered saline at pH 6.5 (ziprasidone); type: physicochemical; settings: PBS pH 6.5, at equilibrium; drug crystallizes as the free base form
Source text: (§1) An example of a drug having a crystalline highly soluble salt form is ziprasidone. Ziprasidone hydrochloride monohydrate has a solubility of about 10 μgA/mL (expressed as the free base) in water, whereas the free base form has a solubility of less than about 0.2 μgA/mL under the same conditions. Thus, crystalline ziprasidone hydrochloride is a solubility-improved form relative to the crystalline free base form of ziprasidone.
An appropriate MFD solution is the same PBS solution wherein there is also present 7.3 mM sodium taurocholic acid and 1.4 mM of 1-palmitoyl-2-oleyl-sn-glycero-3-phosphocholine.

[3] = type: physicochemical; settings: not told, 100 μgA/mL, pH 6.5
Protocol: An Accurel® PP 1E microporous polypropylene membrane was obtained from Membrana GmbH (Wuppertal, Germany). The membrane was washed in isopropyl alcohol and rinsed in methanol in a sonicating bath for 1 minute at ambient temperature, and then allowed to air dry at ambient temperature. The feed side of the membrane was then plasma-treated to render it hydrophilic by placing a sample of the membrane in a plasma chamber. The atmosphere of the plasma chamber was saturated with water vapor at a pressure of 550 mtorr. A plasma was then generated using radio frequency (RF) power inductively coupled into the chamber via annular electrodes at a power setting of 50 watts for 45 seconds. The contact angle of a drop of water placed on the surface of the plasma-treated membrane was less than about 40°. The contact angle of a drop of water placed on the permeate side of the same membrane was greater than about 110°.
A permeate reservoir was formed by gluing a sample of the plasma-treated membrane to a glass tube having an inside diameter of about 1 inch (2.54 cm) using an epoxy-based glue (LOCTITE® E-30CL HYSOL® from Henkel Loctite Corp, Rocky Hill, Conn.). The feed-side of the membrane was oriented so that it was on the outside of the permeate reservoir, while the permeate-side of the membrane was oriented so that it was on the inside of the reservoir. The effective membrane area of the membrane on the permeate reservoir was about 4.9 cm^2. The permeate reservoir was placed into a glass feed reservoir. The feed reservoir was equipped with a magnetic stir bar and the reservoir was placed on a stir plate and the stir rate was set to 100 rpm during the test. The apparatus was placed into a chamber maintained at 37° C. for the duration of the test. Further details of the test apparatus and protocols are presented in co-pending U.S. Patent Application Ser. No. 60/557,897, entitled “Method and Device for Evaluation of Pharmaceutical Compositions,” filed Mar. 30, 2004, incorporated herein by reference.
To form the feed solution, a 1.429 mg (0.5 mgA) sample of CC-1 was weighed into a feed reservoir. (As used herein, “mgA” is milligrams of active drug, reported as the free base, non-salt form, non-hydrate drug molecule.) To this was added 5 mL of the MFD solution previously described, consisting of PBS solution containing 7.3 mM sodium taurocholic acid and 1.4 mM of 1-palmitoyl-2-oleyl-sn-glycero-3-phosphocholine (0.5% NaTC/POPC). […] The feed solution was mixed using a vortex mixer for 1 minute. Before the membrane contacted the feed solution, 5 mL of 60 wt % decanol in decane was placed into the permeate reservoir. Time zero in the test was when the membrane was placed in contact with the feed solution. A […] aliquot of the permeate solution was collected at the times indicated. Samples were then diluted in […] IPA and analyzed using HPLC.
The maximum flux of drug across the membrane (in units of μgA/cm^2-min) was determined by performing a least-squares fit to the data in Table 4 from 0 to 60 minutes to obtain the slope (CC-1: 0.26 μgA/mL-min; Control 1A: 0.13 μgA/mL-min; Control 1B: 0.07 μgA/mL-min), multiplying the slope by the permeate volume (5 mL), and dividing by the membrane area (4.9 cm^2).

Solubility in water = type: physicochemical; settings: expressed as the free base, listed as free base form
Source text: as §1

O=C1Cc2cc(CCN3CCN(c4nsc5ccccc45)CC3)c(Cl)cc2N1 [Ziprasidone Free Base, ziprasidone]
Dissolved Ziprasidone Concentration ([1]; time 4 min): 1 μgA/mL
Dissolved Ziprasidone Concentration ([1]; time 10 min): 1 μgA/mL
Dissolved Ziprasidone Concentration ([1]; time 20 min): 1 μgA/mL
Dissolved Ziprasidone Concentration ([1]; time 40 min): 2 μgA/mL
Dissolved Ziprasidone Concentration ([1]; time 90 min): 1 μgA/mL
Dissolved Ziprasidone Concentration ([1]; time 1200 min): 2 μgA/mL
AUC ([1]; up to time 4 min): 3 min-μgA/mL
AUC ([1]; up to time 10 min): 11 min-μgA/mL
AUC ([1]; up to time 20 min): 23 min-μgA/mL
AUC ([1]; up to time 40 min): 51 min-μgA/mL
AUC ([1]; up to time 90 min): 120 min-μgA/mL
AUC ([1]; up to time 1200 min): 2000 min-μgA/mL
AUC90 ([1]; area under the concentration-versus-time curve during the initial ninety minutes, MFD solution): 120 min·µgA/mL
MDC90 ([1]; maximum dissolved concentration during the initial ninety minutes, MFD solution): 2 µgA/mL
equilibrium solubility [2]: about 0.2 μgA/mL
Ziprasidone Concentration in Permeate ([3]; 0 min): 0.0 μgA/mL
Maximum Flux of Ziprasidone [3]: 0.07 μgA/cm^2-min
Ziprasidone Concentration in Permeate ([3]; 20 min): 0.0 μgA/mL
Ziprasidone Concentration in Permeate ([3]; 40 min): 3.3 μgA/mL
Ziprasidone Concentration in Permeate ([3]; 60 min): 3.4 μgA/mL
Ziprasidone Concentration in Permeate ([3]; 90 min): 5.4 μgA/mL
Ziprasidone Concentration in Permeate ([3]; 120 min): 6.8 μgA/mL
Ziprasidone Concentration in Permeate ([3]; 180 min): 9.2 μgA/mL
Ziprasidone Concentration in Permeate ([3]; 245 min): 11.5 μgA/mL
Ziprasidone Concentration in Permeate ([3]; 360 min): 14.7 μgA/mL
solubility in water (Solubility in water): less than 0.2 μgA/mL

— patent US9445998B2, “Pharmaceutical dosage forms comprising a low-solubility drug and a polymer” (Bend Research, Inc., priority 2004, dated 2016)
